Columns and labels:
[1] = target: Serine/threonine-protein kinase PLK3 (Homo sapiens) (UniProt Q9H4B4); details: Compound concentration 1000.0 nM
[2] = target: Aurora kinase B (Homo sapiens) (UniProt Q96GD4); details: Compound concentration 1000.0 nM
[3] = target: Tyrosine-protein kinase SYK (Homo sapiens) (UniProt P43405); details: Compound concentration 1000.0 nM
[4] = target: Tyrosine-protein kinase Blk (Homo sapiens) (UniProt P51451); details: Compound concentration 1000.0 nM
[5] = target: Serine/threonine-protein kinase SBK1 (Homo sapiens) (UniProt Q52WX2); details: Compound concentration 1000.0 nM
[6] = target: cAMP-dependent protein kinase catalytic subunit alpha (Homo sapiens) (UniProt P17612); details: Compound concentration 1000.0 nM
[7] = target: Tyrosine-protein kinase Fgr (Homo sapiens) (UniProt P09769); details: Compound concentration 1000.0 nM
[8] = target: cGMP-dependent protein kinase 1 (Homo sapiens) (UniProt Q13976); details: Compound concentration 1000.0 nM
[9] = target: NUAK family SNF1-like kinase 1 (Homo sapiens) (UniProt O60285); details: Compound concentration 1000.0 nM
[10] = target: Serine/threonine-protein kinase Nek10 (Homo sapiens) (UniProt Q6ZWH5); details: Compound concentration 1000.0 nM
[11] = tested on: Phosphatidylinositol 4,5-bisphosphate 3-kinase catalytic subunit alpha isoform (Homo sapiens), P42336 [E545K]; details: Compound concentration 1000.0 nM
[12] = target: MAP kinase-activated protein kinase 5 (Homo sapiens) (UniProt Q8IW41); details: Compound concentration 1000.0 nM
[13] = tested on: Epidermal growth factor receptor (Homo sapiens), P00533 [G719S]; details: Compound concentration 1000.0 nM
[14] = target: Muscarinic acetylcholine receptor M5 (Homo sapiens) (UniProt P08912); details: Compound concentration 10.0 uM
[15] = target: Atypical kinase COQ8B, mitochondrial (Homo sapiens) (UniProt Q96D53); details: Compound concentration 1000.0 nM
[16] = target: Calcium/calmodulin-dependent protein kinase kinase 2 (Homo sapiens) (UniProt Q96RR4); details: Compound concentration 1000.0 nM
[17] = tested on: Mast/stem cell growth factor receptor Kit (Homo sapiens), P10721 [V559D,V654A]; details: Compound concentration 1000.0 nM
[18] = tested on: Epidermal growth factor receptor (Homo sapiens), P00533 [UNDEFINED MUTATION]; details: Compound concentration 1000.0 nM
[19] = target: Serine/threonine-protein kinase TAO3 (Homo sapiens) (UniProt Q9H2K8); details: Compound concentration 1000.0 nM
[20] = target: Death-associated protein kinase 3 (Homo sapiens) (UniProt O43293); details: Compound concentration 1000.0 nM
[21] = target: Mitotic checkpoint serine/threonine-protein kinase BUB1 (Homo sapiens) (UniProt O43683); details: Compound concentration 1000.0 nM
[22] = target: Phosphatidylinositol 5-phosphate 4-kinase type-2 beta (Homo sapiens) (UniProt P78356); details: Compound concentration 1000.0 nM
[23] = target: Phosphatidylinositol 4-phosphate 5-kinase type-1 alpha (Homo sapiens) (UniProt Q99755); details: Compound concentration 1000.0 nM
[24] = target: Phosphorylase b kinase regulatory subunit alpha, liver isoform (Homo sapiens) (UniProt P46019); details: Compound concentration 1000.0 nM
[25] = tested on: Epidermal growth factor receptor (Homo sapiens), P00533 [UNDEFINED MUTATION]; details: Compound concentration 1000.0 nM; remark: listed apart in the source
[26] = target: T1, D(4) dopamine receptor (Homo sapiens) (UniProt P21917); details: Compound concentration 10.0 uM
T1 sequence (whole entry): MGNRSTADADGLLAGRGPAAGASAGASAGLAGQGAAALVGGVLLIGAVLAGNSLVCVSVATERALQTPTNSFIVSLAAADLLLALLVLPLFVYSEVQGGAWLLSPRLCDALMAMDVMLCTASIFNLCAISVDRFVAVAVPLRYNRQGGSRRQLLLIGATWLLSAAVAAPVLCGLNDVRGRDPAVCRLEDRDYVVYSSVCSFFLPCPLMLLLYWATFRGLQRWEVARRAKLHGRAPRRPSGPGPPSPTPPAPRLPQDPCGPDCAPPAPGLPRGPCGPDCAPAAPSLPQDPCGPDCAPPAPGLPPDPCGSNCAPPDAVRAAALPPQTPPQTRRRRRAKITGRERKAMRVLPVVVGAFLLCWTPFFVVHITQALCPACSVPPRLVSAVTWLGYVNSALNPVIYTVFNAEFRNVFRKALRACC

[27] = tested on: Fibroblast growth factor receptor 3 (Homo sapiens), P22607 [G697C]; details: Compound concentration 1000.0 nM
[28] = target: LIM domain kinase 1 (Homo sapiens) (UniProt P53667); details: Compound concentration 1000.0 nM
[29] = target: Tyrosine-protein kinase JAK3 (Homo sapiens) (UniProt P52333); details: Compound concentration 1000.0 nM
[30] = target: Dual specificity mitogen-activated protein kinase kinase 1 (Homo sapiens) (UniProt Q02750); details: Compound concentration 1000.0 nM
[31] = target: Dual specificity mitogen-activated protein kinase kinase 5 (Homo sapiens) (UniProt Q13163); details: Compound concentration 1000.0 nM
[32] = target: Delta-type opioid receptor (Homo sapiens) (UniProt P41143); details: Compound concentration 10.0 uM
[33] = target: Ribosomal protein S6 kinase alpha-6 (Homo sapiens) (UniProt Q9UK32); details: Compound concentration 1000.0 nM
[34] = target: Serine/threonine-protein kinase PLK4 (Homo sapiens) (UniProt O00444); details: Compound concentration 1000.0 nM
[35] = target: Serine/threonine-protein kinase VRK2 (Homo sapiens) (UniProt Q86Y07); details: Compound concentration 1000.0 nM
[36] = tested on: Mast/stem cell growth factor receptor Kit (Homo sapiens), P10721 [D816V]; details: Compound concentration 1000.0 nM
[37] = target: Serine/threonine-protein kinase Nek7 (Homo sapiens) (UniProt Q8TDX7); details: Compound concentration 1000.0 nM
[38] = target: SNF-related serine/threonine-protein kinase (Homo sapiens) (UniProt Q9NRH2); details: Compound concentration 1000.0 nM
[39] = target: Casein kinase I isoform delta (Homo sapiens) (UniProt P48730); details: Compound concentration 1000.0 nM
Chain of Casein kinase I isoform delta (Homo sapiens) (P48730 whole entry, looked up, canonical isoform): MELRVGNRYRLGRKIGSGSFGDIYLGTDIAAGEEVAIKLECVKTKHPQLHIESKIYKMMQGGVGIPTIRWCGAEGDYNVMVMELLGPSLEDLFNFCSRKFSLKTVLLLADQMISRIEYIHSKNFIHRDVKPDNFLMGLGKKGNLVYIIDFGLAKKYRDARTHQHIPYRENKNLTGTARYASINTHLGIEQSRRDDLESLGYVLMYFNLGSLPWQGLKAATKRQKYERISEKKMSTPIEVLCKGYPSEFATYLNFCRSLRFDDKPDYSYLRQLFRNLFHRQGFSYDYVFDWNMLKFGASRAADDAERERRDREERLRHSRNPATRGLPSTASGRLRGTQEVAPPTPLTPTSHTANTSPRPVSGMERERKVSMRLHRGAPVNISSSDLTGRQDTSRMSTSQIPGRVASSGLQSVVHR

Chain of Aurora kinase B (Homo sapiens) (Q96GD4 whole entry): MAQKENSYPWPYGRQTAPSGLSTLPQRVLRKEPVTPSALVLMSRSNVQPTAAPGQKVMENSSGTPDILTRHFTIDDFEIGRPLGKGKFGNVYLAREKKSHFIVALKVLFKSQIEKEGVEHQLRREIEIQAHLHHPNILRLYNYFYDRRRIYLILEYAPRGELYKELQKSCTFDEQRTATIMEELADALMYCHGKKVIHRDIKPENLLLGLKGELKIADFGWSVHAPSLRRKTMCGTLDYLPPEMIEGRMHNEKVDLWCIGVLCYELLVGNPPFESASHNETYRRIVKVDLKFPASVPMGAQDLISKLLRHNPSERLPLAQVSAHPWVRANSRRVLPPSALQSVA
Chain of MAP kinase-activated protein kinase 5 (Homo sapiens) (Q8IW41 whole entry): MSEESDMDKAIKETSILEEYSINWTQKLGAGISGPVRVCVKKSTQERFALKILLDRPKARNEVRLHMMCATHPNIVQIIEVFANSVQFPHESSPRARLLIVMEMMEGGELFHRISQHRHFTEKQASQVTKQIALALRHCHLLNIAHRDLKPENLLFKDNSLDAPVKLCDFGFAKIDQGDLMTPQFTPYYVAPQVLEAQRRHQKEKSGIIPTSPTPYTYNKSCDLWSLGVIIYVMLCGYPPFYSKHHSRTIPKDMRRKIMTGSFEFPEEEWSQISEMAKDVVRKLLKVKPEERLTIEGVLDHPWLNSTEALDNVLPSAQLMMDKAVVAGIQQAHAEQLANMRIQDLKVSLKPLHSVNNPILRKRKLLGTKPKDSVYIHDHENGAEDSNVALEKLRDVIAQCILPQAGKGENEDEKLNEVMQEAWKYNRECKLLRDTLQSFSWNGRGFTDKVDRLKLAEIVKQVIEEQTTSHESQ
Chain of cGMP-dependent protein kinase 1 (Homo sapiens) (Q13976 whole entry): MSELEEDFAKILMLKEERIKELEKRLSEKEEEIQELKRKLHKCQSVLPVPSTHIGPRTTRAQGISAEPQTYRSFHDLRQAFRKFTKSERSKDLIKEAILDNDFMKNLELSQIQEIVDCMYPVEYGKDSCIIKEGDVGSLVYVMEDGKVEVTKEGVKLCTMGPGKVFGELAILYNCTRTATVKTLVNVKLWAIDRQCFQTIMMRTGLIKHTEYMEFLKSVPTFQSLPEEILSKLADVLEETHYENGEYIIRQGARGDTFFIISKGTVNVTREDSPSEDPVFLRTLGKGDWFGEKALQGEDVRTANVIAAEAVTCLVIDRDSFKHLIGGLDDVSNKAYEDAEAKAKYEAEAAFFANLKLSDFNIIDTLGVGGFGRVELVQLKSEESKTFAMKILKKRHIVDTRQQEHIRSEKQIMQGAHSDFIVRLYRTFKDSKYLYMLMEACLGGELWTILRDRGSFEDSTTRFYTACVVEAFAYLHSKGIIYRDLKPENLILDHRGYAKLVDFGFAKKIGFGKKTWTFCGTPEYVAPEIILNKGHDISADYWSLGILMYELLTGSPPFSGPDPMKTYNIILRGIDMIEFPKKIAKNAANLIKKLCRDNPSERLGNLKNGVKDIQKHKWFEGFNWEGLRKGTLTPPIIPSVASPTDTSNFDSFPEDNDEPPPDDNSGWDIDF
Chain of Serine/threonine-protein kinase SBK1 (Homo sapiens) (Q52WX2 whole entry): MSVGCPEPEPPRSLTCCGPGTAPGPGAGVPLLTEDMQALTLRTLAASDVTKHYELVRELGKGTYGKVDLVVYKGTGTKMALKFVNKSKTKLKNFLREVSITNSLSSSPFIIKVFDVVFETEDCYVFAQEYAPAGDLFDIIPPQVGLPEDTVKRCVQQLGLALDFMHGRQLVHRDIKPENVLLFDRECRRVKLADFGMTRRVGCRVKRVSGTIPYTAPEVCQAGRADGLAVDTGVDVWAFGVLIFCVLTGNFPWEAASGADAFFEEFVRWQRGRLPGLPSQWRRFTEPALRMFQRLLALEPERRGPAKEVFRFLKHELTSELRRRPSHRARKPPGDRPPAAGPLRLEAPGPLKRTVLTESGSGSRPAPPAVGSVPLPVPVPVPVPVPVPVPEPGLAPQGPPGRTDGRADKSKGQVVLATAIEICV
Chain of Dual specificity mitogen-activated protein kinase kinase 1 (Homo sapiens) (Q02750 whole entry): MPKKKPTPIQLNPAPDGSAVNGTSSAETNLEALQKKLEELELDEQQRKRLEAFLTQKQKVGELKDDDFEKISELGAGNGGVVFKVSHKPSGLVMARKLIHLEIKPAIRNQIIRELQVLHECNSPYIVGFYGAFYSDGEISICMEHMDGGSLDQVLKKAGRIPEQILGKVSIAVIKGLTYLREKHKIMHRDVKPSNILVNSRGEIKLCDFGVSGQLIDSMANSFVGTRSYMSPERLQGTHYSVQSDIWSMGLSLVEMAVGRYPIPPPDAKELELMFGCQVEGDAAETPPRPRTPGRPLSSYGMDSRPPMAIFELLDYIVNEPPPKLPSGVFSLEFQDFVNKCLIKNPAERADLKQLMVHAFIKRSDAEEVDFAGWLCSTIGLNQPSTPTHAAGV
Chain of SNF-related serine/threonine-protein kinase (Homo sapiens) (Q9NRH2 whole entry, canonical isoform): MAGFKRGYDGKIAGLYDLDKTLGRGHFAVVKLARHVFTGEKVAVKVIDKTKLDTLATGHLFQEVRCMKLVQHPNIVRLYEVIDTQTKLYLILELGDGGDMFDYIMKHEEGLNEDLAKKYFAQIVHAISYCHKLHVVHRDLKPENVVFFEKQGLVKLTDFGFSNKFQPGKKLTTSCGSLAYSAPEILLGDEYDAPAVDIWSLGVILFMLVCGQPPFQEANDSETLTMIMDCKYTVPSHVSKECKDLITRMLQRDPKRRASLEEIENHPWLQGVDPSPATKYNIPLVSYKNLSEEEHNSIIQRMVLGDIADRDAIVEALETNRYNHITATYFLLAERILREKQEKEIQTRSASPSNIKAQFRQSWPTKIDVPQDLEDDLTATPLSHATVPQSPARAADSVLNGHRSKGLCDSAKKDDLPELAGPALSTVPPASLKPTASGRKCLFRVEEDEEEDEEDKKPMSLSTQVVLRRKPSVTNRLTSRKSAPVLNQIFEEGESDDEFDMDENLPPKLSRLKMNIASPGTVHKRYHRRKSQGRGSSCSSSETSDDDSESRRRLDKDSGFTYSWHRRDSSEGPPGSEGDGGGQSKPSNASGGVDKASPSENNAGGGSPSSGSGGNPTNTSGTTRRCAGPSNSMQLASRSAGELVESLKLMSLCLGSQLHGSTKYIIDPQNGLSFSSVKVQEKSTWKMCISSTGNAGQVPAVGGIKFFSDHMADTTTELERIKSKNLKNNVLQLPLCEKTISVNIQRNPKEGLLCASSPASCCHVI
Chain of Phosphatidylinositol 4,5-bisphosphate 3-kinase catalytic subunit alpha isoform (Homo sapiens), P42336 [E545K] (P42336 whole entry E545K, canonical isoform): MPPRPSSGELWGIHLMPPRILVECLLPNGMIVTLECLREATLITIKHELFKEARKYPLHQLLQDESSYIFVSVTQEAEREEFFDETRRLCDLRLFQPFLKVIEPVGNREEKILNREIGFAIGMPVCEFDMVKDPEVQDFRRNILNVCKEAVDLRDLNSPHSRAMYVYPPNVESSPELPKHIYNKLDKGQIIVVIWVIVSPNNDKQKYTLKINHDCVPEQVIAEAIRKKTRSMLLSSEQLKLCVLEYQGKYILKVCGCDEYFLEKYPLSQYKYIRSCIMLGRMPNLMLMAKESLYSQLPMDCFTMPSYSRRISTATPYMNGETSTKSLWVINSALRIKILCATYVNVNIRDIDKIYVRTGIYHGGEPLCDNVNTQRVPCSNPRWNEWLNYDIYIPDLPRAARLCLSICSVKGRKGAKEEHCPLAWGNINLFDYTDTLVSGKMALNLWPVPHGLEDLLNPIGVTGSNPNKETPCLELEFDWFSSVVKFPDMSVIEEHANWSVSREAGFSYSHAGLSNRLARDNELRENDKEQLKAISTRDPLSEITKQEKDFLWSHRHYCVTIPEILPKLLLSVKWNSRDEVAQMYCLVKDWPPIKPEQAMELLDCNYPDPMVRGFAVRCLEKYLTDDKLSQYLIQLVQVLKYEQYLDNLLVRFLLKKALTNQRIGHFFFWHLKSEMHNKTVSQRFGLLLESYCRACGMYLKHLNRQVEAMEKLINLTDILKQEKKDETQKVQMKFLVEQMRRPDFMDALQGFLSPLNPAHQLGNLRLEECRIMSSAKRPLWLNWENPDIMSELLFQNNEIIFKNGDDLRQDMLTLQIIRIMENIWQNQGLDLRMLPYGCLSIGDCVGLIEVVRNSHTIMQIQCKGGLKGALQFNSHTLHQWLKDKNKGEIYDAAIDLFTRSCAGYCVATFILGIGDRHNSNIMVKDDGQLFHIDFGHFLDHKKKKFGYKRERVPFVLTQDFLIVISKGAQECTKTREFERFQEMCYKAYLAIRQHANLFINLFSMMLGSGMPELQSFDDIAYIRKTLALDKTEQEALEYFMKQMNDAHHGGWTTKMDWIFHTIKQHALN
Chain of Phosphatidylinositol 5-phosphate 4-kinase type-2 beta (Homo sapiens) (P78356 whole entry): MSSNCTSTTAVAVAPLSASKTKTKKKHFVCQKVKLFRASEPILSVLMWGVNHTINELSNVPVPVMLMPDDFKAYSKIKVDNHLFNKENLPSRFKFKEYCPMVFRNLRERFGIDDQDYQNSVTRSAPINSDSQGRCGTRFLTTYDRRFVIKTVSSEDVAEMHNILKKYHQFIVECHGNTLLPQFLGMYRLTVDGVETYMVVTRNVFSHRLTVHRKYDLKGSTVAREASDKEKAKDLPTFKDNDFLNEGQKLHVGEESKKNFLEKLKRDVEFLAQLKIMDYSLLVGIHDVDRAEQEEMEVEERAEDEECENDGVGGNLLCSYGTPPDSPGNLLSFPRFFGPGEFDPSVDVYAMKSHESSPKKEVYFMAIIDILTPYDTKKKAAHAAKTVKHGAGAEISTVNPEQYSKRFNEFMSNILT

CC(=O)N1CCC(c2ccc(C(=O)NC3=NCCN3)cc2C(F)(F)F)CC1 [BI 0054]
inactive: residual activity [1] 78% | residual activity [2] 100% | residual activity [3] 100% | residual activity [4] 94% | residual activity [5] 97% | residual activity [6] 100% | residual activity [7] 100% | residual activity [8] 100% | residual activity [9] 98% | residual activity [10] 93% | residual activity [11] 87% | residual activity [12] 88% | residual activity [13] 100% | inhibition [14] 14.9% | residual activity [15] 97% | residual activity [16] 100% | residual activity [17] 100% | residual activity [18] 89% | residual activity [19] 87% | residual activity [20] 84% | residual activity [21] 100% | residual activity [22] 75% | residual activity [23] 100% | residual activity [24] 100% | residual activity [25] 100% | inhibition [26] -5.64% | residual activity [27] 87% | residual activity [28] 100% | residual activity [29] 100% | residual activity [30] 100% | residual activity [31] 92% | inhibition [32] -0.82% | residual activity [33] 94% | residual activity [34] 100% | residual activity [35] 100% | residual activity [36] 91% | residual activity [37] 100% | residual activity [38] 98% | residual activity [39] 100%

CC(=O)N1CCC(c2ccc(C(=O)NC(=N)N)cc2C(F)(F)F)CC1 [BI 9627]
inactive: residual activity [1] 82% | residual activity [2] 100% | residual activity [3] 100% | residual activity [4] 100% | residual activity [5] 100% | residual activity [6] 100% | residual activity [7] 91% | residual activity [8] 100% | residual activity [9] 100% | residual activity [10] 92% | residual activity [11] 76% | residual activity [12] 100% | residual activity [13] 96% | inhibition [14] -8.36% | residual activity [15] 100% | residual activity [16] 100% | residual activity [17] 100% | residual activity [18] 100% | residual activity [19] 86% | residual activity [20] 100% | residual activity [21] 85% | residual activity [22] 77% | residual activity [23] 94% | residual activity [24] 100% | residual activity [25] 93% | inhibition [26] -5.7% | residual activity [27] 98% | residual activity [28] 100% | residual activity [29] 100% | residual activity [30] 97% | residual activity [31] 86% | inhibition [32] -5.35% | residual activity [33] 96% | residual activity [34] 100% | residual activity [35] 100% | residual activity [36] 100% | residual activity [37] 100% | residual activity [38] 100% | residual activity [39] 100%

From ChEMBL document CHEMBL4507279, “Data for DCP probe BI-9627” (2021)
